# Measurements reported in PMC4014703 (Pharmaceuticals, 2014).
# Where a SMILES comes first, the peptide text is derived from it. Side-chain parts run from the residue outwards. [ ]: non-standard residue; d: D form. The star is where a group is joined. DOTA = O=C(O)CN1CCN(CC(=O)O)CCN(CC(=O)*)CCN(CC(=O)O)CC1; PEG6 = NCCOCCOCCOCCOCCOCCOCCC(=O)O; Tle = CC(C)(C)[C@H](N)C(=O)O; Nlys = NCCCCNCC(=O)O
# Legend:
# in vivo = test: in vivo; set-up: species or system nude mice; settings: nude, mouse, total radioactivity
# Method: 10–14 days after inoculation of the HT29 cells (tumor weight: 200–700 mg), the mice (about 10–12 weeks old with about 35–40 g body weight) were used for biodistribution studies. […] They were sacrificed by cervical dislocation 1 h, 4 h and 24 h after injection. Tumors and other tissues (blood, lung, liver, kidneys, heart, spleen, brain, muscle, femur and intestine) were rapidly removed and weighed. Radioactivity of the dissected tissues was measured using a gamma counter (Wallac Wizard, Perkin Elmer). Results were expressed as percentage of injected dose per gram of tissue (% ID/g), and tumor-to-organ ratios were calculated. Two randomly chosen mice were used for the determination of nonspecific tracer uptake in vivo. […] These mice were sacrificed by cervical dislocation at 4 h post injection (p.i.) and organs and tissue were removed, weighed and counted as described above.
# tumor = settings: ^188Re-labeled peptide, day 6 after begin of treatment; cited from earlier work
tissue to tissue ratio at 1 h (in vivo; iv),tissue to tissue ratio at 24 h (in vivo; iv),tissue uptake at 1 h (in vivo; iv) [%ID/g],tissue uptake at 24 h (in vivo; iv) [%ID/g],"tissue uptake at 24 h (in vivo; iv, Accumulation in HT29 tumor) [%ID/g]","tissue uptake at 1 h (in vivo; iv, Accumulation in kidney) [%ID/g]","tissue uptake at 24 h (in vivo; iv, Radioactivity concentration in liver) [%ID/g]",tissue uptake at 4 h (in vivo; Accumulation in HT29 tumor) [%ID/g],Compound,Tumor growth in tumor-bearing nude mice (tumor)
30,60,0.05,0.01,0.6,38 ± 1,0.4,1.1,"CC(C)C[C@H](NC(=O)[C@@H](NC(=O)[C@H](Cc1ccc(O)cc1)NC(=O)[C@@H]1CCCN1C(=O)[C@H](CCCCN)NC(=O)CN(CCCCN)C(=O)[C@@H](N)CCCCNC(=O)CCOCCOCCOCCOCCOCCOCCNC(=O)CN1CCN(CC(=O)O)CCN(CC(=O)O)CCN(CC(=O)O)CC1)C(C)(C)C)C(=O)O [[^177Lu]NT127, metal not drawn] (H-K([PEG6-DOTA])[Nlys]KPY[Tle]L-OH)",–
–,–,–,–,–,–,–,–,(N^αHis)Ac-Arg-(N-CH3)-Arg-Pro-Dmt-Tle-Leu [NT-XIX],decreased
